The test system of series [1] is human plasma protein. The series can be described thus: EScalate equilibrium shift assay, human plasma. It counts as in vitro ADME. How it is done:
Binding of peptides to human plasma proteins was determined by the EScalate equilibrium shift assay (Sovicell, Leipzig, Germany), using five dilutions of plasma in phosphate buffered saline and an assumed binding protein concentration of 600 µM. Samples were incubated for 1 h at room temperature then centrifuged to remove the HSA-coated beads. Supernatant samples were analyzed using HPLC (3 µm Phenomenex Aeris Widepore XB-C18 stationary phase) coupled to an electrospray ionization quadrupole time-of-flight mass spectrometer in high resolution accurate mass mode (Agilent, Santa Clara, CA, USA). Unbound fractions were calculated from the concentration-dependent shift in binding equilibrium according to fu=1/1+P/KDPlasma , where P is the concentration of the binding protein in plasma and KDPlasma is the dissociation constant of the compound from plasma proteins in solution.

Series [2] has as its system C57Bl/6 J mice. Nature of the series: Acute food intake in C57Bl/6J mice. It counts as in vivo, mouse. The note with it: versus placebo. How it is done:
Male C57Bl/6 J mice 8–10 weeks of age (Jackson Laboratories, Bar Harbor, ME, USA) were single-housed in the BioDAQ (Research Diets, New Brunswick, NJ, USA) food monitoring system with ad libitum access to standard chow and water. Mice were randomized into groups of 6–9 per group on baseline 24-h food intake. On the first study day, mice were fasted for 6 h and then received a single subcutaneous dose of test peptide or placebo (50 mM Tris–HCl, 150 mM mannitol, 0.02% polysorbate 80; pH 8.0). Food intake was monitored over the next 48 h.

The nature of series [3]: Pharmacokinetics of oral tablets in dogs. Format: in vivo. The settings on record: oral tablets 20 mg/dog, semaglutide: 300 mg SNAC, uncoated, MEDI7219: 100 mg NaCDC and 200 mg PG, pH 5.5 enteric, n = 9.
Series [4] has as its target T1, GLP-1R (endogenously expressed, EndoC-βH1 cells) (Homo sapiens, UniProt P43220).
T1 construct: EndoC-βH1 human pancreatic β-cell line, which endogenously expresses GLP-1R; endogenous in cells; host or cells: EndoC-βH1 human pancreatic β-cells
Nature of the series: cAMP accumulation assay in EndoC-βH1 human pancreatic β-cells. It counts as cell-based. The note with it: geometric mean (SEM). How it is done: All reagents for cAMP assays were obtained from Sigma-Aldrich unless otherwise specified.
Cells were suspended in assay buffer and combined with serially diluted peptides at room temperature for 30 min. cAMP levels were measured using a cAMP dynamic 2 HTRF kit (Cisbio, Codolet, France), following the manufacturer’s two-step protocol, on an EnVision plate reader (PerkinElmer, Waltham, MA, USA). […] The transformed data were analyzed by four-parameter logistic fit to determine EC50 values using GraphPad Prism 6 (GraphPad Software, San Diego, CA, USA).

Series [5] concerns HFHF fed dogs. Nature of the series: Dog model of obesity and insulin resistance (HFHF fed dogs), oral tablets. Format: in vivo. The note with it: for plasma glucose excursions after oral glucose challenge: 10–40 min after glucose, P < 0.05, n = 7–11 per group. How it is done:
For the single-dose study, dogs were randomized on baseline glucose levels to receive MEDI7219 1 mg or 10 mg or placebo tablets in the morning following an overnight fast (7–11 dogs per group). Ninety minutes after tablet administration, dogs received an oral glucose bolus (200 mg/mL at a 5 mL/kg volume calculated on body weight prior to HFHF feeding), and blood glucose (blood collected via peripheral vein) was measured with an AlphaTRAK glucometer system (Zoetis, Parsippany, NJ, USA) at –90, 0, 10, 20, 30, 40, 50, 60, 75, 90, 120, 180 and 240 min after glucose administration. Approximately 12 weeks later, dogs entered the multiple-dose study and received either MEDI7219 10 mg (n = 12) or placebo tablets (n = 6) once daily for 14 days. Dogs received two cups of HFHF canine diet per day, with feeding 3 h postdose during the 14-day study. Dogs had access to water ad libitum throughout the study. Food intake and body weight were monitored daily. On day 14, after overnight fasting, dogs received their final dose followed by an oral glucose and acetaminophen bolus 90 min after administration. Blood glucose was measured as described previously, and plasma acetaminophen levels were measured by LC/MS method at the same time points.

*1 amine or outer side, *2 acyl side, *3 side chain or, on linkers, in order; H or OH if unused. Where a SMILES comes first, the peptide text is derived from it. Side-chain parts run from the residue outwards. [ ]: non-standard residue; d: D form. The star is where a group is joined. γGlu = O=C(O)[C@H](CCC(=O)[*:2])N[*:1]; αMeF = C[C@](N)(Cc1ccccc1)C(=O)O; αMeK = C[C@](N)(CCCCN)C(=O)O; Lauroyl = CCCCCCCCCCCC(=O)*; αMeS = C[C@](N)(CO)C(=O)O; AEEA = NCCOCCOCC(=O)O; Aib = CC(C)(N)C(=O)O

T1 sequence (P43220 24-463): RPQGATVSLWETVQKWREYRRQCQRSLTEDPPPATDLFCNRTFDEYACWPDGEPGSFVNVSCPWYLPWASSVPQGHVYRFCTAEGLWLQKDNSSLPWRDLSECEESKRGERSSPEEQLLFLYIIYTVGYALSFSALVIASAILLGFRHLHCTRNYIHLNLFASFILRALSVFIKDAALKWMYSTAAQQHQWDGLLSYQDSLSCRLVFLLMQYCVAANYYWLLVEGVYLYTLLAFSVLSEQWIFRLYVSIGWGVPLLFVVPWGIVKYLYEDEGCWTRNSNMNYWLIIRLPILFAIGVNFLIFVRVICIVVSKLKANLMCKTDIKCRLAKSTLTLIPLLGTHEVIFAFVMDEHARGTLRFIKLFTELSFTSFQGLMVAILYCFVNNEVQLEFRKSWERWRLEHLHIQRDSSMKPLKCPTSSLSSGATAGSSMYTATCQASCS

Take `CCCCCCCCCCCC(=O)N[C@@H](CCC(=O)NCCOCCOCC(=O)NCCOCCOCC(=O)NCCCC[C@H](NC(=O)[C@H](C)NC(=O)[C@@H](NC(=O)[C@](C)(Cc1ccccc1)NC(=O)[C@H](CCC(=O)O)NC(=O)[C@](C)(CCCCN)NC(=O)[C@H](C)NC(=O)[C@H](C)NC(=O)[C@H](CCC(=O)O)NC(=O)CNC(=O)[C@H](CCC(=O)O)NC(=O)[C@H](CC(C)C)NC(=O)[C@H](CCCCNC(=O)COCCOCCNC(=O)COCCOCCNC(=O)CC[C@H](NC(=O)CCCCCCCCCCC)C(=O)O)NC(=O)[C@H](CO)NC(=O)[C@](C)(CO)NC(=O)[C@@H](NC(=O)[C@H](CC(=O)O)NC(=O)[C@H](CO)NC(=O)[C@@H](NC(=O)[C@](C)(Cc1ccccc1)NC(=O)[C@H](CO)NC(=O)CNC(=O)[C@H](CCC(=O)O)NC(=O)C(C)(C)NC(=O)[C@@H](N)Cc1c[nH]cn1)[C@@H](C)O)C(C)C)[C@@H](C)CC)C(=O)N[C@H](C(=O)N[C@H](C(=O)N[C@@H](CCC(=O)O)C(=O)NCC(=O)NCC(N)=O)C(C)C)C(C)C)C(=O)O` [MEDI7219] (H-H[Aib]EGS[αMeF]TSDV[αMeS]SK([AEEA-AEEA-γGlu-Lauroyl])LEGEAA[αMeK]E[αMeF]IAK([AEEA-AEEA-γGlu-Lauroyl])VVEGG-NH2): the “peptide bound to plasma proteins, human” value in series [1] (EScalate equilibrium shift assay) is given as “over 97%”. Besides, in series [1] (EScalate equilibrium shift, HSA-coated beads, five dilutions of plasma in PBS, 1 h at room temperature, HPLC-QTOF MS), the “Fraction unbound peptide (%), human” value is recorded as 1.75%. For the same compound, the “24-hour food intake, decrease (↓) in Fig. 3a” value was 12.6% in series [2] (subcutaneous 0.3 nmol/kg), 18.0% in series [2] (subcutaneous 1 nmol/kg) and 39.4% in series [2] (subcutaneous 3 nmol/kg). Also, in series [3] (arithmetic mean (% CV)), the AUC0-inf is recorded as 13,500 (54.2) ng·h/mL. For the same compound, the “CL/F (oral clearance)” value in series [3] (arithmetic mean (% CV)) is 1,880 (52.1) mL/h. The Cmax in series [3] (arithmetic mean (% CV)) is given as 1,450 (63.2) ng/mL. The “F (bioavailability, systemic fraction)” value in series [3] (arithmetic mean (% CV)) is 5.92 (54.2) %. Also, the Tmax in series [3] (median (min–max)) is reported as 1.5 (1.0–4.5) hours. Further, the t½ in series [3] (plasma, LC/MS, arithmetic mean (% CV)) is recorded as 9.8 (13.2) hours. Moreover, the EC50 in series [4] (0.1% BSA, 30 min at room temperature, HTRF cAMP, n ≥ 3 independent experiments) came out at 1.36 nM. Also, the “Human EndoC-βH1 cAMP 0.1% BSA Effect at max. concentration” value in series [4] (% activation, 80 nM native GLP-1 defines maximum effect) is reported as 97.5 (7.1) %. Also, the “body weight change over 14 days” value in series [5] (once-daily 10 mg oral tablets, 14 days, placebo + 0.71%, P < 0.05, n = 12) is “–4.86%”. Also, the “glucose excursions in oral glucose tolerance test, day 14” value in series [5] (once-daily 10 mg oral tablets, fasted, postdose day 14, versus placebo, P < 0.01) is “significant improvements in glucose excursions”. Moreover, the “peak plasma acetaminophen concentration (gastric emptying), day 14” value in series [5] (once-daily 10 mg oral tablets, oral acetaminophen with glucose bolus, versus placebo) is “significantly reduced at 20–40 min (P < 0.05) and delayed”. Besides, in series [5] (once-daily 10 mg oral tablets, versus placebo, P < 0.05), the “cumulative food intake over 14 days” value is “significantly decreased cumulative food intake”. The “plasma glucose excursions after oral glucose challenge” value in series [5] (single dose 1 mg oral tablet, versus placebo) was “statistically significantly improved”; in series [5] (single dose 10 mg oral tablet, versus placebo), “statistically significantly improved”.

The values are drawn from paper PMC8602401 (Scientific Reports, 2021).
